Values belong to the molecule of their own block, whether it stands above or below them.
What was measured:
[1] = system: peripheral blood mononuclear cells (PBMC); assay: Toxicity on patients' PBMC; assay type: cell-based, human
Protocol: Then, treating organoids in presence of 5 μg/mL pembrolizumab, in combination with either of these agents (AZD3965 at 0.1 μM, GSK2837808A at 1 μM, and WZHAb10 at 0.0006 μM) and each PBMC (FIGS. 18, 19 and 20). IgG was used as control in FIG. 18, IgG and/or vehicle were used as control in FIGS. 19-20.

[2] = system: patient-derived NSCLC organoid; assay: Organoid drug response assay (CellTiter-Glo); assay type: cell-based, human; conditions: three days of drug incubation; three patient models
Protocol: All procedures performed involving human participants were approved by the Ethics Committee of Shanghai Jiao Tong University School of Medicine and were in accordance with the ethical standards of Helsinki Declaration (as revised in 2013). All the donors signed an informed consent form. Freshly excised tumor samples from patients were kept in MACS tissue storage solution (Miltenyi) at 4° C. upon harvest. Tumor tissues were minced into small pieces on ice, then incubated with 0.001% DNase (Sigma-Aldrich, MO, USA), 1 mg/mL collagenase/dispase (Roche, IN, USA), 200 U/mL penicillin, […], and […] amphotericin B (2% antibiotics, Sigma) in DMEM/F12 medium (Thermofisher) at 37° C. for three hours with gentle agitation and intermittent resuspension. Thereafter, the digested tissue suspension was repeatedly triturated via pipetting and passed through a 70 μm filter. The strained suspension was centrifuged at 112×g for three minutes, and red blood cells were lysed using lysis buffer (00443357, Thermofisher) for five minutes. […]
The organoids cultured over two weeks were harvested and dissociated using 1× TrypLe (Thermofisher). […] The plates were agitated for 30 minutes at room temperature (10° C.-30° C.) prior to measuring luminescence.

[3] = biological target: WT MCT1/BSG-2 (mouse) (UniProt P53986)
[4] = biological target: WT MCT4/BSG-2 (mouse) (UniProt P57787)

Molecule: Cc1[nH]nc(C(F)(F)F)c1Cc1sc2c(c1C(=O)N1C[C@](C)(O)CO1)c(=O)n(C)c(=O)n2C(C)C [AZD3965]
- effect on T cell growth (PBMC) ([1]; at 0.1 μM): little effects on T cell growth
- anti-proliferative effect of single agent on organoids [2]: moderate anti-proliferative effect

Molecule: COc1ncc(-c2ccc3c(Nc4cc(Oc5cc(F)cc(F)c5)cc(C(=O)O)c4)c(S(=O)(=O)NC4CC4)cnc3c2)c(OC)n1 [GSK2837808A]
- effect on T cell growth (PBMC) ([1]; at 1 μM): little effects on T cell growth
- anti-proliferative effect of single agent on organoids [2]: moderate anti-proliferative effect

- transport activity (H+ influx, H+-pyruvate symport in proteoliposomes) [3]: 75%
- transport activity (H+ influx, H+-L-lactate symport in proteoliposomes) [4]: 50%
B1: WZHAb10 (antibody, V domains shown)
VH: QVQLVQSGAEVKKPGASVKVSCKASGYTFTNYWIHWVRQAPGQGLEWMGMIHPNSGSINYNEKFKTRVTMTRDTSTSTVYMELSSLRSEDTAVYYCARVGSGSLDYWGQGTLVTVSS
VL: EIVLTQSPATLSLSPGERATLSCRASQSISDYLHWYQQKPGQAPRLLIKYVSQSISGIPARFSGSGSGTYFTLTISSLEPEDVAVYYCQNGEEAPYTFGQGTKLEIKR
